Results: PubChem BioAssay AID504844 (National Center for Advancing Translational Sciences (NCATS), 2011)

Test system: mouse plasma stability, LC-MS/MS, 48 h
Experiment: Inhibitors of HPGD: Mouse Plasma Stability Profiling
Details: at 2 µM; active compounds read high
Excerpt: Human 15-Hydroxyprostaglandin dehydrogenase (HPGD) catalyzes the inactivation of prostaglandin E2, and plays a major role in cancer biology by antagonizing the oncogenic potential of cyclooxygenase type 2 (COX2). Follow-up assays are available, based on absorbance/fluorescence increase of NADH with the substrate 15-OH prostaglandin E2. Please see summary AID for more information on this project. After qHTS, hits were confirmed in follow-up assays, and leads were optimized through SAR. The resulting lead compound was further characterized through a battery ADME-Tox experiments, and this assay describes its stability in mouse plasma. NIH Chemical Genomics Center [NCGC] NIH Molecular Libraries Probe Centers Network [MLPCN] MLPCN Grant: MH084681-02 Assay Submitter (PI): Udo Oppermann, Structural Genomics Consortium
2microM of compound is incubated in mouse plasma, the reference compound is procaine. Compounds are incubated at 37 deg C for the pre-determined time periods and the when aliquots are removed. Samples are analyzed with LC-MS/MS.

percent remaining [%] | SMILES
98 | Cc1cccc(-n2cnc3cc(C(=O)N4CCCCC4)ccc32)c1
98 | Cc1cc(-c2nnc3n2CCCCC3)c(C)n1-c1ccccc1
